The record followed here is patent US20110105397A1, “METHOD FOR TREATING HEART FAILURE WITH STRESSCOPIN-LIKE PEPTIDES” (priority 2009, published 2011).

Several values for one entry are separate records, joined by “and”; a condition that tells them apart may be missing. Equal entries are not always repeated. Where two headings read alike, the source gives them in different places. Where a SMILES comes first, the peptide text is derived from it. Where no end group is shown, it is not given here. The star is where a group is joined. Succinimide(1-Et,3-yl) = CCN1C(=O)CC(*)C1=O

This assay addresses T1, human CRHR2 (Homo sapiens, UniProt Q13324).
T1 construct: expressed in transfected cells
T1 sequence (Q13324 1-411): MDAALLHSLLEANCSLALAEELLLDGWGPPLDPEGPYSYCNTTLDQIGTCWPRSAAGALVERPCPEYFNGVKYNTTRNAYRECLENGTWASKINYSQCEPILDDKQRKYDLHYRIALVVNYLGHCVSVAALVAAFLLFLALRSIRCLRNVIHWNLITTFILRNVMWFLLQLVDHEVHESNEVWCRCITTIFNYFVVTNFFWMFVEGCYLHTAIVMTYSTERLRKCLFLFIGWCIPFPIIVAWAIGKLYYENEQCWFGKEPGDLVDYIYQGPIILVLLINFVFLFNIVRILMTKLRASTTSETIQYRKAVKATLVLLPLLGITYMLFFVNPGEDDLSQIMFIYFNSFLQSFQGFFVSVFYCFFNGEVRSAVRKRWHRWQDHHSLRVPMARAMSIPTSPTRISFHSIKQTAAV
Briefly: cAMP assay, h-CRHR2 transfected SK-N-MC cells. The conditions noted are these: for EC50: read-out: pA50 (converted); for Log DR [M]: h-SCP control pA50 minus test compound pA50 within the same assay batch. In kind it is cell-based. On the procedure:
The concentration required for 50% maximum effect (A50) was 0.4 nM.
Human CRHR1 (accession number X72304) or CRHR2 (accession number U34587) were cloned into pcDNA3.1/Zeo expression vector and stably transfected into SK—N-MC cells by electroporation. Cells were maintained in MEM w/Earl's Salt with 10% FBS, 50 I.U. penicillin, 50 μg/ml streptomycin, 2 mM L-glutamine, 1 mM sodium pyruvate and 0.1 mM non-essential amino acids, 600 μg/ml G418. Cells were grown at 37° C. in 5% CO2
Cells were plated in 96-well tissue culture dishes (Biocoat from BD Biosciences) overnight at 50,000 cell/well. Cells were washed with PBS then resuspended in DMEM F-12 without phenol red, containing 10 μM isobutylmethylxanthine (IBMX). Cells were incubated with the peptides at concentrations ranging from 1 pM to 10 μM for 60 min at 37° Celsius. […] Forskolin (10 μM), a direct stimulant of adenylate cyclase, was used as positive control. The assays were stopped by the addition of 0.5 M HCl and mixing by orbital rotation for 2 h at 4° Celsius.
To assess the activity of the inventive polypeptide at the CRHR2, an intracellular cAMP measurement test using a Flash plate radioactive assay (Catalog No. Cus56088; Perkin Elmer, Mass., U.S.A.) was employed.
Transfected SK—N-MC cells were plated in 96-well Biocoat tissue culture dishes (BD Biosciences, San Jose, Calif., U.S.A) overnight at 50,000 cell/well. Cells were first washed with PBS and then suspended with DMEM/F-12 without phenol red, containing […]. Suspended cells were transferred into a 96-well flash plate coated with scintillant fluid. Cells were incubated with peptides ranging from 1 pM to 1 μM, for 60 min, at 37° Celsius. Forskolin at 10 μM was used as positive control. After ligand stimulation, cells were lysed by the addition of 0.5M HCl and mixed by orbital rotation for 2 h at 4° Celsius in order to release intracellular cAMP into the media.
Media containing released intracellular cAMP was transferred to a 96-well flash plate coated with scintillant fluid containing an anti-cAMP antibody. In this assay, intracellular cAMP competes with ^125I-labeled cAMP binding to the antibody. To generate a standard curve, cAMP ranging from 2.5 to 250 pmoles/ml was included in the experiment. [^125I]-cAMP was measured on a TopCount scintillation counter (Perkin Elmer, Mass., U.S.A).
Individual agonist concentration-response curve data were fitted to the Hill equation, see formula below, using GraphPad Prism (Graphpad Software, La Jolla, Calif., U.S.A.), to provide estimates of agonist concentration needed to generate one-half maximal response (A50), and the maximal asymptote (α) and Hill slope (nH) parameters. In this equation, [A] is the agonist concentration and E is the measured effect:
For display purposes the mean fitted parameter estimates were used to generate a single E/[A] curve shown superimposed on the mean experimental data. Potency estimates for agonists, pA50, are expressed as the negative logarithm of the midpoint of each curve and listed with their standard error of measurement (SEM). Logarithm base 10 of the agonist dose ratio (Log DR) values were calculated by subtraction of the test compound pA50 value from the corresponding h-SCP (SEQ ID NO:1) control pA50 value within the same assay batch. The SEM values of the Log DR values are given by the square root of the sum of the squared SEM values of the h-SCP (SEQ ID NO:1) control and test compound pA50 values.
Human and rat peptides (see Table 10) were used on the stimulation of h-CRHR1 or h-CRHR2 transfected SK—N-MC cells in the cAMP flash plate assay. Peptides were incubated for 1 hr at 37° Celsius. Curves were calculated using non-linear regression sigmoidal concentration-response analysis calculation in GraphPad Prism. The so obtained pA50 values are shown in Table 11 in addition to literature values. […]

Setting [1] is: Table 13, cysteine mutation, N-ethylmaleimide capping, pegylation.

Take `CC[C@H](C)[C@H](NC(=O)[C@H](CC(N)=O)NC(=O)[C@H](Cc1ccccc1)NC(=O)[C@H](CC(C)C)NC(=O)[C@H](CC(C)C)NC(=O)[C@H](CC(N)=O)NC(=O)[C@H](CCSC)NC(=O)[C@@H](NC(=O)[C@H](CC(N)=O)NC(=O)[C@@H](NC(=O)[C@@H]1CCCN1C(=O)[C@@H](NC(=O)[C@H](CC(=O)O)NC(=O)[C@H](CC(C)C)NC(=O)[C@H](CO)NC(=O)[C@H](CC(C)C)NC(=O)[C@@H](NC(=O)[C@H](Cc1ccccc1)NC(=O)[C@H](CCCCN)NC(=O)[C@@H](N)[C@@H](C)O)[C@@H](C)O)C(C)C)[C@@H](C)O)[C@@H](C)CC)C(=O)N[C@@H](C)C(=O)N[C@@H](CCCCN)C(=O)N[C@@H](C)C(=O)N[C@@H](CCCCN)C(=O)N[C@@H](CC(N)=O)C(=O)N[C@@H](CC(C)C)C(=O)N[C@@H](CCCNC(=N)N)C(=O)N[C@@H](C)C(=O)N[C@@H](CCC(N)=O)C(=O)N[C@@H](C)C(=O)N[C@@H](C)C(=O)N[C@@H](C)C(=O)N[C@@H](CC(N)=O)C(=O)N[C@@H](C)C(=O)N[C@@H](Cc1c[nH]cn1)C(=O)N[C@@H](CC(C)C)C(=O)N[C@@H](CCSC)C(=O)N[C@@H](C)C(=O)N[C@@H](CCC(N)=O)C(=O)N[C@@H](CSC1CC(=O)N(CC)C1=O)C(N)=O` (stereo partly drawn) [SEQ ID NO: 42, TKFTLSLDVPTNIMNLLFNIAKAKNLRAQAAANAHLMAQC(-NES)-NH2] (H-TKFTLSLDVPTNIMNLLFNIAKAKNLRAQAAANAHLMAQC(Succinimide(1-Et,3-yl))-NH2; N-terminus assumed): the EC50 under setting [1] was about 17.8 nM. For the same compound, where the note is “Table 13”, the “Log DR [M]” value is reported as about 1.72.

For “TKFTCSLDVPTNIMNLLFNIAKAKNLRAQAAANAHLMAQI-NH2 [SEQ ID NO: 6, TKFTCSLDVPTNIMNLLFNIAKAKNLRAQAAANAHLMAQI-NH2]”, the EC50 under setting [1] was 0.851 nM. Moreover, the “Log DR [M]” value (Table 13) was determined as 0.61.

On to “H-TKFTLSLDVPTNIMNLLFNIAKAKNLRAQAAANAHLMCQI-NH2 [SEQ ID NO: 39, TKFTLSLDVPTNIMNLLFNIAKAKNLRAQAAANAHLMCQI-NH2]”, for which, under setting [1], the EC50 was 0.617 nM. For the same compound, the “Log DR [M]” value (Table 13) is given as 0.41.

In the case of “H-TKFTLSLDVPTNIMNLLCNIAKAKNLRAQAAANAHLMAQI-NH2 [SEQ ID NO: 19, TKFTLSLDVPTNIMNLLCNIAKAKNLRAQAAANAHLMAQI-NH2]”, the EC50 under setting [1] was 9.77 nM. Further, the “Log DR [M]” value (Table 13) is listed as 1.67.

For “TKFTLSLCVPTNIMNLLFNIAKAKNLRAQAAANAHLMAQI-NH2 [SEQ ID NO: 9, TKFTLSLCVPTNIMNLLFNIAKAKNLRAQAAANAHLMAQI-NH2]”, under setting [1], the EC50 is 15.8 nM. Further, the “Log DR [M]” value (Table 13) came to 1.89.

Consider “LSLDVPTNIMNLLFNIAKAKNLRAQAAANAHLMAQI-NH2 [SEQ ID NO: 109, LSLDVPTNIMNLLFNIAKAKNLRAQAAANAHLMAQI-NH2]”, for which the nH (Table 12) was determined as 0.74. The EC50 (Table 12, amidation and N-terminal deletions, normalized to maximum response to h-SCP, 3-5 replicate experiments) was 46.8 nM and 45.7 nM. The compound also had a αmax (Table 12, normalized to the maximum response to h-SCP) of 109.6.

Consider “TKFTLSLDVPTNIMNLLFNIAKAKNLRAQAAANAHCMAQI-NH2 [SEQ ID NO: 37, TKFTLSLDVPTNIMNLLFNIAKAKNLRAQAAANAHCMAQI-NH2]”, for which the EC50 under setting [1] is 2.63 nM. The “Log DR [M]” value (Table 13) is on record as 1.05.

Regarding “H-TKFTLSLDVPTNIMNLLFNIAKAKNLRAQAACNAHLMAQI-NH2 [SEQ ID NO: 33, TKFTLSLDVPTNIMNLLFNIAKAKNLRAQAACNAHLMAQI-NH2]”, under setting [1], the EC50 was 0.851 nM. Besides, under “Table 13”, the “Log DR [M]” value is 0.45.

Consider “TKFTLSLDVPTNIMNCLFNIAKAKNLRAQAAANAHLMAQI-NH2 [SEQ ID NO: 17, TKFTLSLDVPTNIMNCLFNIAKAKNLRAQAAANAHLMAQI-NH2]”, for which the EC50 under setting [1] was 0.316 nM. Moreover, where the note is “Table 13”, the “Log DR [M]” value was 0.02.

On to “TKFTLSLDVPTNIMNLLFNIAKCKNLRAQAAANAHLMAQI-NH2 [SEQ ID NO: 24, TKFTLSLDVPTNIMNLLFNIAKCKNLRAQAAANAHLMAQI-NH2]”, for which, under setting [1], the EC50 is 1.15 nM. Further, the “Log DR [M]” value (Table 13) turned out to be 0.74.

Turning to “TKFTLSLDVPTNIMNLLFNIAKAKNCRAQAAANAHLMAQI-NH2 [SEQ ID NO: 27, TKFTLSLDVPTNIMNLLFNIAKAKNCRAQAAANAHLMAQI-NH2]”, under setting [1], the EC50 is 1.74 nM. Moreover, the “Log DR [M]” value (Table 13) worked out at 0.76.

“H-TKFTLSLDVPTNCMNLLFNIAKAKNLRAQAAANAHLMAQI-NH2 [SEQ ID NO: 14, TKFTLSLDVPTNCMNLLFNIAKAKNLRAQAAANAHLMAQI-NH2]”: the EC50 under setting [1] was about 45.7 nM. Besides, the “Log DR [M]” value (Table 13) is recorded as over 2.

For the compound `CC[C@H](C)[C@H](NC(=O)[C@H](CCC(N)=O)NC(=O)[C@H](C)NC(=O)[C@H](CCSC)NC(=O)[C@H](CC(C)C)NC(=O)[C@H](Cc1c[nH]cn1)NC(=O)[C@H](C)NC(=O)[C@H](CC(N)=O)NC(=O)[C@H](C)NC(=O)[C@H](C)NC(=O)[C@H](C)NC(=O)[C@H](CCC(N)=O)NC(=O)[C@H](CSC1CC(=O)N(CC)C1=O)NC(=O)[C@H](CCCNC(=N)N)NC(=O)[C@H](CC(C)C)NC(=O)[C@H](CC(N)=O)NC(=O)[C@H](CCCCN)NC(=O)[C@H](C)NC(=O)[C@H](CCCCN)NC(=O)[C@H](C)NC(=O)[C@@H](NC(=O)[C@H](CC(N)=O)NC(=O)[C@H](Cc1ccccc1)NC(=O)[C@H](CC(C)C)NC(=O)[C@H](CC(C)C)NC(=O)[C@H](CC(N)=O)NC(=O)[C@H](CCSC)NC(=O)[C@@H](NC(=O)[C@H](CC(N)=O)NC(=O)[C@@H](NC(=O)[C@@H]1CCCN1C(=O)[C@@H](NC(=O)[C@H](CC(=O)O)NC(=O)[C@H](CC(C)C)NC(=O)[C@H](CO)NC(=O)[C@H](CC(C)C)NC(=O)[C@@H](NC(=O)[C@H](Cc1ccccc1)NC(=O)[C@H](CCCCN)NC(=O)[C@@H](N)[C@@H](C)O)[C@@H](C)O)C(C)C)[C@@H](C)O)[C@@H](C)CC)[C@@H](C)CC)C(N)=O` (stereo partly drawn) [SEQ ID NO: 47, TKFTLSLDVPTNIMNLLFNIAKAKNLRC(-NES)QA AANAH LMAQI-NH2] (H-TKFTLSLDVPTNIMNLLFNIAKAKNLRC(Succinimide(1-Et,3-yl))QAAANAHLMAQI-NH2), under setting [1], the EC50 was 0.316 nM. Besides, the “Log DR [M]” value (Table 13) was −0.03.

For “TKFTLSLDVPTNIMNLLFCIAKAKNLRAQAAANAHLMAQI-NH2 [SEQ ID NO: 20, TKFTLSLDVPTNIMNLLFCIAKAKNLRAQAAANAHLMAQI-NH2]”, the EC50 under setting [1] is 1 nM. Moreover, the “Log DR [M]” value (Table 13) came out at 0.52.

Take “CKFTLSLDVPTNIMNLLFNIAKAKNLRAQAAANAHLMAQI-NH2 [SEQ ID NO: 2, CKFTLSLDVPTNIMNLLFNIAKAKNLRAQAAANAHLMAQI-NH2]”: the EC50 under setting [1] is 1.07 nM. Moreover, the “Log DR [M]” value (Table 13) was 0.72.

Consider “TKFTLSLDVPTNIMNLLFNIAKAKNLRAQCAANAHLMAQI-NH2 [SEQ ID NO: 31, TKFTLSLDVPTNIMNLLFNIAKAKNLRAQCAANAHLMAQI-NH2]”, for which the EC50 under setting [1] is 9.55 nM. The “Log DR [M]” value (Table 13) amounted to 1.61.
